Experimental data as given in patent US7498162B2, “Lactic acid bacteria capable of reducing an individual's tendency to develop allergic reactions” (Nestec S.A., priority 2000, dated 2009).

Experiments:
Assay type in all cases: in vivo, Balb/c mice
anti-β-lactoglobulin IgE = assay: Oral tolerance mouse model: anti-β-lactoglobulin IgE ELISA titer; details: synthetic peptide given orally; for IgE titer (log) (test/control): test value of the test/control pair (control 3.39), mice then immunized with β-lactoglobulin
Description: (§1) For assessing the tolerogenic properties of the various peptides female Balb/c mice were used, obtained from IFFA-Crédo (L'Abresle France). The animals were all bred and raised on a milk free diet. At the beginning of the experiments the animals were 3 weeks old. They received by gavage native β-lactoglobulin (5 mg/g of body weight), various amounts of digested β-lactoglobulin and various amounts of the different peptides obtained under a) above. Control mice were fed saline water. After 5 days on such a diet all mice were immunized with β-lactoglobulin and ovalbumin (grade V, Sigma) as a non related antigen in order to assess the specificity of the immune response. A delayed type hypersensitivity evaluation (DTH) was performed 21 days after the systemic challenge by comparing the thickness of the left rear footpad, prior to and after the immunization. 24 hours after the immunization the foot pad thickness of the animals were measured (expressed in Δ thickness (mm)). Subsequently, blood was taken from all mice, followed by talking the spleens, that were pooled according to group treatment. Splenocyte specific proliferation assays were performed for each group. The intestinal contents were individually collected. Serum and intestinal samples were individually frozen at −80° C. until performance of the respective assays. Anti-β-lactoglobulin IgE and anti-ovalbumin IgE levels were determined both in serum and intestinal samples.
The serum and intestinal fluids were diluted and assayed in duplicate for anti-β-lactoglobulin and anti-ovalbumin IgE antibodies using ELISA. Pooled samples of 20 non immunized mice were used as negative controls. The titers were determined by calculating the dilution of the sample, that gave twice the absorbance of the negative control. The titers were expressed as the log10 of the reciprocal of he dilution
(§2) The synthetic peptides were analysed for their tolerogenic capacity in the […] mouse model.

MLN lymphocytes = assay: Mesenteric lymph node lymphocyte proliferation (stimulation index); details: synthetic peptide given orally
Spleen lymphocyte = assay: Splenocyte specific proliferation assay ([3H]-Thy, stimulation index); details: synthetic peptide given orally; for Spleen lymphocyte SI (test/control): SI: Stimulation Index; for T cell proliferation / T cell response: result in words
Description: as §1
Spleen cell solutions were homogenized in PBS and purified. The cells were co-cultured in the presence of β-lactoglobulin or phytohemagglutinin A. Tritiated thymidine ([^3H]-Thy (Amersham, Zürich) was added during the last 6 hours of culture and the plates were harvested and analyzed by scintillation counting. Stimulation indices were calculated as the ratio of blank-substracted test and control levels expressed as the mean cpm of [^3H]-Thy incorporated by triplicate cultures.
as §2

| Substance | IgE production (anti-β-lactoglobulin IgE; result in words) | IgE titer (log) (test/control) (anti-β-lactoglobulin IgE) | MLN lymphocytes SI (test/control) (MLN lymphocytes) | Spleen lymphocyte SI (test/control) (Spleen lymphocyte) | T cell proliferation / T cell response (Spleen lymphocyte) | oral tolerance to BLG (anti-β-lactoglobulin IgE; result in words) |
| --- | --- | --- | --- | --- | --- | --- |
| T-17: synthetic β-lactoglobulin peptide (residues 92-100 with flanking residues and extra Cys), SEQ ID 23: C N K V L V L D T D Y K K Y S (CNKVLVLDTDYKKYS) | reduced | 2.67/3.39 log | 0.41 | 0.31 | reduced |  |
| T-6: synthetic β-lactoglobulin peptide (residues 84-91 with flanking residues and extra Cys), SEQ ID 22: C F K I D A L N E N K V S R (CFKIDALNENKVSR) |  | 3.24/3.39 log | 0.29 | 0.53 | suppressed |  |
| T-13: control peptide, N-terminus of β-lactoglobulin (residues 1-8), SEQ ID 25: L I V T Q T M K S R C (LIVTQTMKSRC) [reference compound] |  | 3.20/3.39 log | 0.87 | 1.70 |  | did not induce |
| T-6/T-17: synthetic β-lactoglobulin peptide (residues 84-100), SEQ ID 24: CFKIDALNENKVLVLDTDYKKYS (CFKIDALNENKVLVLDTDYKKYS) |  | 3.40/3.39 log | 0.81 | 0.92 |  |  |
